Measured values: PubChem BioAssay (NCI)
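Protocol summary: plate cells (96-well), add compound at 5 concentrations, incubate 48 h, interpolate endpoints linearly. GI50 = concentration required for 50% inhibition of growth. TGI marks complete inhibition of growth.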

Experiments:
Test in all cases: NCI-60 cell line screen, 48 h
HCT-15 colon = tested on: HCT-15 colon
HOP-62 NSCLC = tested on: HOP-62 NSCLC
HOP-92 NSCLC = tested on: HOP-92 NSCLC
HT29 colon = tested on: HT29 colon
K-562 leukemia = tested on: K-562 leukemia
MALME-3M melanoma = tested on: MALME-3M melanoma
NCI-H522 lung = tested on: NCI-H522 lung
OVCAR-3 ovarian = tested on: OVCAR-3 ovarian
SK-MEL-28 melanoma = tested on: SK-MEL-28 melanoma
SR leukemia = tested on: SR leukemia

| SMILES | TGI (HCT-15 colon) [µM] | TGI (HOP-62 NSCLC) [µM] | TGI (HOP-92 NSCLC) [µM] | TGI (HT29 colon) [µM] | TGI (K-562 leukemia) [µM] | TGI (MALME-3M melanoma) [µM] | TGI (NCI-H522 lung) [µM] | TGI (OVCAR-3 ovarian) [µM] | TGI (SK-MEL-28 melanoma) [µM] | TGI (SR leukemia) [µM] | GI50 (HCT-15 colon) [µM] | GI50 (HOP-62 NSCLC) [µM] | GI50 (HOP-92 NSCLC) [µM] | GI50 (HT29 colon) [µM] | GI50 (K-562 leukemia) [µM] | GI50 (MALME-3M melanoma) [µM] | GI50 (NCI-H522 lung) [µM] | GI50 (OVCAR-3 ovarian) [µM] | GI50 (SK-MEL-28 melanoma) [µM] | GI50 (SR leukemia) [µM] |
| --- | --- | --- | --- | --- | --- | --- | --- | --- | --- | --- | --- | --- | --- | --- | --- | --- | --- | --- | --- | --- |
| CON(C)C(=O)C(Cc1ccccc1)NC(=O)OCc1ccccc1 (stereo not drawn) | > 100 | > 100 | > 100 | > 100 | > 100 | > 100 | > 100 | > 100 | > 100 | > 100 | – | – | – | – | – | – | – | – | – | – |
| O=C(CC1Sc2ccccc2NC1=O)Nc1ccccc1[N+](=O)[O-] (stereo not drawn) | > 100 | > 100 | > 100 | > 100 | > 100 | > 100 | 32.8 | > 100 | > 100 | > 100 | – | – | – | – | – | – | – | – | – | – |
| CO[C@](C(=O)OC[C@H]1[C@@H](COC(C)=O)[C@@H]2O[C@H]1c1cc3c(cc12)OCO3)(c1ccccc1)C(F)(F)F | > 100 | 73.6 | > 100 | > 100 | – | > 100 | 17.2 | > 100 | > 100 | > 100 | – | – | – | – | – | – | – | – | – | – |
| Oc1ccc(NCn2c(=S)sc3ccccc32)cc1 | > 100 | > 100 | > 100 | > 100 | > 100 | > 100 | 40.5 | > 100 | > 100 | – | – | – | – | – | – | – | – | – | – | – |
| CCn1cnc2c(=S)nc(N)[nH]c21 | > 100 | > 100 | – | > 100 | > 100 | > 100 | > 100 | > 100 | > 100 | > 100 | – | – | – | – | – | – | – | – | – | – |
| CCCCCCOc1ccc(/C=N/Nc2cc(C)nc3ccc(Cl)cc23)cc1 | 2.55 | 3.08 | 3.07 | 3.09 | 2.22 | 3.44 | 3.51 | 3.74 | 3.18 | 1.6 | 1.27 | 1.55 | 1.42 | 1.59 | 0.467 | 1.91 | 1.79 | 2.05 | 1.76 | 0.336 |
| CCOC(=O)c1csc(NC(=O)CN2CCCC2)n1 | > 100 | > 100 | > 100 | > 100 | > 100 | – | – | > 100 | > 100 | > 100 | – | – | – | – | – | – | – | – | – | – |
| CC1NC(=O)C(C)C(c2ccccc2)N(N=O)C1c1ccccc1 (stereo not drawn) | > 100 | > 100 | > 100 | > 100 | > 100 | > 100 | > 100 | > 100 | > 100 | – | – | – | – | – | – | – | – | – | – | – |
| COc1cc(/C=C2\CN(S(=O)(=O)c3ccc(C)cc3)C/C(=C\c3cc(CN4CCCC4)c(O)c(OC)c3)C2=O)cc(CN2CCCC2)c1O | 5.83 | – | 3.83 | – | – | 3.3 | 2.3 | 2.35 | 3.51 | 3.45 | 1.94 | – | 1.15 | – | – | 1.71 | 0.433 | 1.07 | 1.92 | 0.412 |
